From US9777003B2, “Tricyclic heterocycles as bet protein inhibitors” (Incyte Corporation, priority 2013, dated 2017)

Tests used:
BRD4-BD1 = BRD4-BD1 (Homo sapiens (Human), UniProt O60885); experiment: BRD4 AlphaScreen assay, BRD4-BD1; format: binding; details: biotin-labeled tetra-acetylated histone H4 peptide, 75 min, room temperature, read-out: BRD4 BD-1 enzyme IC50
Method: (§1) BRD4-BD1 and BRD4-BD2 assays were conducted in white 384-well polystyrene plate in a final volume of 20 μL for BD1 and 40 μL for BD2. Inhibitors were first serially diluted in DMSO and added to the plate wells before the addition of other reaction components. The final concentration of DMSO in the assay was 1.25% (BD1) and 0.83% (BD2). The assays were carried out at room temperature for 75 min. in the assay buffer (50 mM HEPES, pH 7.4, 100 mM NaCl, 0.05% CHAPS, 0.01% BSA), containing 50 nM Biotin-labeled tetra-acetylated histone H4 peptide (H4Ac4), 3.8 nM (BRD4-BD1, BPS Bioscience #31040) or 20 nM (BRD4-BD2, BPS Bioscience #31041). The reaction followed by the addition of 20 μL of assay buffer supplemented with Streptavidin donor beads (PerkinElmer 6760002) and GSH Acceptor beads (PerkinElmer-AL109C) at 4 μg/mL under reduced light. After plate sealing, the plate was incubated in the dark at room temperature for 75 min. before reading on a PHERAstar FS plate reader (BMG Labtech). IC50 determination was performed by fitting the curve of percent control activity versus the log of the inhibitor concentration using the GraphPad Prism 5.0 software.

BRD4-BD2 = BRD4-BD2 (Homo sapiens (Human), UniProt O60885); experiment: BRD4 AlphaScreen assay, BRD4-BD2; format: binding; details: biotin-labeled tetra-acetylated histone H4 peptide, 75 min, room temperature, read-out: BRD4 BD-2 enzyme IC50
Method: as §1

Row | IC50 (BRD4-BD1) | IC50 (BRD4-BD2) | SMILES
1 | 100 to 1000 nM | ≤ 100 nM | Cc1nc2c(ccc3nnc(C)n32)n1Cc1ccccc1 [Example 55, 3-benzyl-2,8-dimethyl-3H-imidazo[4,5-e][1,2,4]triazolo[4,3-a]pyridine]
2 | 100 to 1000 nM | ≤ 100 nM | Cc1nnc2ccc3c(cc(CO)n3Cc3ccccc3)n12 [Example 56, (6-benzyl-1-methyl-6H-pyrrolo[2,3-e][1,2,4]triazolo[4,3-a]pyridin-7-yl)methanol]
3 | 1000 to 10000 nM | 100 to 1000 nM | Cc1nnc2ccc3c(cc(Cn4ccnc4)n3Cc3ccccc3)n12 [Example 57, 6-benzyl-7-(1H-imidazol-1-ylmethyl)-1-methyl-6H-pyrrolo[2,3-e][1,2,4]triazolo[4,3-a]pyridine]
4 | ≤ 100 nM | ≤ 100 nM | Cc1nnc2ccc3c(cc(C(N)=O)n3Cc3ccccc3)n12 [Example 58, 6-benzyl-1-methyl-6H-pyrrolo[2,3-e][1,2,4]triazolo[4,3-a]pyridine-7-carboxamide]
5 | ≤ 100 nM | ≤ 100 nM | CCNC(=O)c1cc2c(ccc3nnc(C)n32)n1Cc1ccccc1 [Example 59, 6-benzyl-N-ethyl-1-methyl-6H-pyrrolo[2,3-e][1,2,4]triazolo[4,3-a]pyridine-7-carboxamide]
6 | 100 to 1000 nM | ≤ 100 nM | Cc1nnc2ccc3c(cc(C(=O)N4CC(C#N)C4)n3Cc3ccccc3)n12 [Example 60, 1-[(6-benzyl-1-methyl-6H-pyrrolo[2,3-e][1,2,4]triazolo[4,3-a]pyridin-7-yl)carbonyl]azetidine-3-carbonitrile]
7 | 1000 to 10000 nM | 100 to 1000 nM | Cc1nnc2ccc3c(cc(CCO)n3Cc3ccccc3)n12 [Example 61, 2-(6-benzyl-1-methyl-6H-pyrrolo[2,3-e][1,2,4]triazolo[4,3-a]pyridin-7-yl)ethanol]
8 | ≤ 100 nM | ≤ 100 nM | Cc1nnc2ccc3c(cc(-c4ccn[nH]4)n3Cc3ccccc3)n12 [Example 62, 6-benzyl-1-methyl-7-(1H-pyrazol-5-yl)-6H-pyrrolo[2,3-e][1,2,4]triazolo[4,3-a]pyridine]
9 | ≤ 100 nM | ≤ 100 nM | Cc1nnc2ccc3c(cc(-c4cn[nH]c4)n3Cc3ccccc3)n12 [Example 63, 6-benzyl-1-methyl-7-(1H-pyrazol-4-yl)-6H-pyrrolo[2,3-e][1,2,4]triazolo[4,3-a]pyridine]
10 | ≤ 100 nM | ≤ 100 nM | Cc1nnc2ccc3c(cc(-c4cnn(CC#N)c4)n3Cc3ccccc3)n12 [Example 64, [4-(6-benzyl-1-methyl-6H-pyrrolo[2,3-e][1,2,4]triazolo[4,3-a]pyridin-7-yl)-1H-pyrazol-1-yl]acetonitrile]
11 | ≤ 100 nM | ≤ 100 nM | Cc1nnc2ccc3c(cc(-c4ccn(CC#N)n4)n3Cc3ccccc3)n12 [Example 65, [3-(6-benzyl-1-methyl-6H-pyrrolo[2,3-e][1,2,4]triazolo[4,3-a]pyridin-7-yl)-1H-pyrazol-1-yl]acetonitrile]
12 | ≤ 100 nM | ≤ 100 nM | Cc1nnc2ccc3c(cc(-c4cscn4)n3Cc3ccccc3)n12 [Example 66, 6-benzyl-1-methyl-7-(1,3-thiazol-4-yl)-6H-pyrrolo[2,3-e][1,2,4]triazolo[4,3-a]pyridine]
13 | ≤ 100 nM | ≤ 100 nM | Cc1nnc2ccc3c(cc(-c4nccs4)n3Cc3ccccc3)n12 [Example 67, 6-benzyl-1-methyl-7-(1,3-thiazol-2-yl)-6H-pyrrolo[2,3-e][1,2,4]triazolo[4,3-a]pyridine]
14 | 100 to 1000 nM | ≤ 100 nM | Cc1nnc2ccc3c(cc(-c4ccccn4)n3Cc3ccccc3)n12 [Example 68, 6-benzyl-1-methyl-7-pyridin-2-yl-6H-pyrrolo[2,3-e][1,2,4]triazolo[4,3-a]pyridine]
15 | 100 to 1000 nM | ≤ 100 nM | Cc1nnc2ccc3c(cc(-c4cncs4)n3Cc3ccccc3)n12 [Example 69, 6-benzyl-1-methyl-7-(1,3-thiazol-5-yl)-6H-pyrrolo[2,3-e][1,2,4]triazolo[4,3-a]pyridine]
16 | ≤ 100 nM | ≤ 100 nM | Cc1nnc2ccc3c(cc(-c4cn(C)cn4)n3Cc3ccccc3)n12 [Example 70, 6-benzyl-1-methyl-7-(1-methyl-1H-imidazol-4-yl)-6H-pyrrolo[2,3-e][1,2,4]triazolo[4,3-a]pyridine]
17 | 100 to 1000 nM | 1000 to 10000 nM | Cc1nnc2ccc3c(cc(-c4cncn4C)n3Cc3ccccc3)n12 [Example 71, 6-benzyl-1-methyl-7-(1-methyl-1H-imidazol-5-yl)-6H-pyrrolo[2,3-e][1,2,4]triazolo[4,3-a]pyridine]

Row | IC50 (BRD4-BD1) | IC50 (BRD4-BD2) | SMILES
18 | ≤ 100 nM | ≤ 100 nM | Cc1nnc2ccc3c(cc(-c4ccsc4)n3Cc3ccccc3)n12 [Example 72, 6-benzyl-1-methyl-7-(3-thienyl)-6H-pyrrolo[2,3-e][1,2,4]triazolo[4,3-a]pyridine]
19 | 100 to 1000 nM | ≤ 100 nM | Cc1nnc2ccc3c(cc(-c4cccs4)n3Cc3ccccc3)n12 [Example 73, 6-benzyl-1-methyl-7-(2-thienyl)-6H-pyrrolo[2,3-e][1,2,4]triazolo[4,3-a]pyridine]
20 | ≤ 100 nM | ≤ 100 nM | Cc1nnc2ccc3c(cc(-c4c[nH]cn4)n3Cc3ccccc3)n12 [Example 74, 6-benzyl-7-(1H-imidazol-4-yl)-1-methyl-6H-pyrrolo[2,3-e][1,2,4]triazolo[4,3-a]pyridine]
21 | ≤ 100 nM | ≤ 100 nM | Cc1nnc2ccc3c(cc(-c4cn(CCN5CCOCC5)cn4)n3Cc3ccccc3)n12 [Example 75, 6-benzyl-1-methyl-7-[1-(2-morpholin-4-ylethyl)-1H-imidazol-4-yl]-6H-pyrrolo[2,3-e][1,2,4]triazolo[4,3-a]pyridine]
22 | ≤ 100 nM | ≤ 100 nM | Cc1nnc2ccc3c(cc(-c4ccn(C)n4)n3Cc3ccccc3)n12 [Example 76, 6-benzyl-1-methyl-7-(1-methyl-1H-pyrazol-3-yl)-6H-pyrrolo[2,3-e][1,2,4]triazolo[4,3-a]pyridine]
23 | ≤ 100 nM | ≤ 100 nM | Cc1nnc2ccc3c(cc(-c4ccn(CCN5CCOCC5)n4)n3Cc3ccccc3)n12 [Example 77, 6-benzyl-1-methyl-7-[1-(2-morpholin-4-ylethyl)-1H-pyrazol-3-yl]-6H-pyrrolo[2,3-e][1,2,4]triazolo[4,3-a]pyridine]
24 | ≤ 100 nM | ≤ 100 nM | Cc1nnc2ccc3c(cc(-c4ccn(CCC#N)n4)n3Cc3ccccc3)n12 [Example 78, 3-[3-(6-benzyl-1-methyl-6H-pyrrolo[2,3-e][1,2,4]triazolo[4,3-a]pyridin-7-yl)-1H-pyrazol-1-yl]propanenitrile]
25 | ≤ 100 nM | ≤ 100 nM | CCn1ccc(-c2cc3c(ccc4nnc(C)n43)n2Cc2ccccc2)n1 [Example 79, 6-benzyl-7-(1-ethyl-1H-pyrazol-3-yl)-1-methyl-6H-pyrrolo[2,3-e][1,2,4]triazolo[4,3-a]pyridine]
26 | ≤ 100 nM | ≤ 100 nM | CCn1cnc(-c2cc3c(ccc4nnc(C)n43)n2Cc2ccccc2)c1 [Example 80, 6-benzyl-7-(1-ethyl-1H-imidazol-4-yl)-1-methyl-6H-pyrrolo[2,3-e][1,2,4]triazolo[4,3-a]pyridine]
27 | ≤ 100 nM | ≤ 100 nM | Cc1nnc2ccc3c(cc(-c4cn(CCC#N)cn4)n3Cc3ccccc3)n12 [Example 81, 3-[4-(6-benzyl-1-methyl-6H-pyrrolo[2,3-e][1,2,4]triazolo[4,3-a]pyridin-7-yl)-1H-imidazol-1-yl]propanenitrile]
28 | ≤ 100 nM | ≤ 100 nM | CNC(=O)c1cc2c(ccc3nnc(C)n32)n1Cc1ccccc1 [Example 82, 6-benzyl-N,1-dimethyl-6H-pyrrolo[2,3-e][1,2,4]triazolo[4,3-a]pyridine-7-carboxamide]
29 | ≤ 100 nM | ≤ 100 nM | CCCNC(=O)c1cc2c(ccc3nnc(C)n32)n1Cc1ccccc1 [Example 83, 6-benzyl-1-methyl-N-propyl-6H-pyrrolo[2,3-e][1,2,4]triazolo[4,3-a]pyridine-7-carboxamide]
30 | 100 to 1000 nM | 100 to 1000 nM | Cc1nnc2ccc3c(cc(C(=O)NC(C)C)n3Cc3ccccc3)n12 [Example 84, 6-benzyl-N-isopropyl-1-methyl-6H-pyrrolo[2,3-e][1,2,4]triazolo[4,3-a]pyridine-7-carboxamide]
31 | ≤ 100 nM | ≤ 100 nM | Cc1nnc2ccc3c(cc(C(=O)NC4CCC4)n3Cc3ccccc3)n12 [Example 85, 6-benzyl-N-cyclobutyl-1-methyl-6H-pyrrolo[2,3-e][1,2,4]triazolo[4,3-a]pyridine-7-carboxamide]
32 | 100 to 1000 nM | 100 to 1000 nM | Cc1nnc2ccc3c(cc(C(=O)N[C@H](C)C(F)(F)F)n3Cc3ccccc3)n12 [Example 86, 6-benzyl-1-methyl-N-[(1R)-2,2,2-trifluoro-1-methylethyl]-6H-pyrrolo[2,3-e][1,2,4]triazolo[4,3-a]pyridine-7-carboxamide]
33 | 100 to 1000 nM | ≤ 100 nM | Cc1nnc2ccc3c(cc(-c4ccn(CCN(C)C)n4)n3Cc3ccccc3)n12 [Example 89, 2-[3-(6-benzyl-1-methyl-6H-pyrrolo[2,3-e][1,2,4]triazolo[4,3-a]pyridin-7-yl)-1H-pyrazol-1-yl]-N,N-dimethylethanamine]
